Here are results for 20 compounds from US20240391931A1 (Bristol-Myers Squibb Company, priority 2021, published 2024).

Counter-ions that a name gives are not always drawn. Bounds are passed on as bounds.

One experiment deals with T1, EGFR WT (Homo sapiens, UniProt P00533).
T1 construct: purchased Thermo Fisher, Carlsbad, CA ERBB1 PR7295B
As to the kind of experiment: Enzymatic assay EGFR WT (method c). Format: biochemical. Conditions: [EGFR WT]=2 nM, [ATP]=1 mM, [Peptide 22]=1 μM. The method, boiled down:
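Microfluidic mobility-shift kinase assay with Peptide 22 (1 μM) in HEPES pH 7.5, MnCl2, MgCl2, Tween 20, TCEP. HER2 WT 12.5 nM and HER2 YVMA 5 nM each used 25 μM ATP; EGFR WT 2 nM used 1 mM ATP. IC50 came from initial-velocity (0–3600 s) percent inhibition, fitted to a variable-slope model.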

Experiment [1] concerns the target T2, HER2 wildtype (WT) protein (Homo sapiens, UniProt P04626).
T2 construct: BT474 and N87 cell lines which endogenously overexpress the HER2 wildtype (WT) protein; endogenous in cells; host or cells: BT474, N87
Briefly: HER2 signaling (pHER2 Tyr1248/total HER2 MSD) in N87 cells. Type of experiment: cell-based. The following applies: 1.5 hr compound, 1% FBS. As for the experimental part:
In addition to the engineered cell lines, the following cell lines were used: BT474 (human breast carcinoma), N87 (human gastric carcinoma), NCI-H1781 (human lung adenocarcinoma), and A431 (human epidermoid carcinoma); all cell lines were obtained from the American Type Culture Collection (ATCC, Manassas, VA). NCI-H1781 were grown in complete RPMI 1640 (Life Technologies, Carlsbad, CA) supplemented with 15% fetal bovine serum (FBS, Life Technologies, Carlsbad, CA) and 1% Penicillin-Streptomycin (P/S, Life Technologies, Carlsbad, CA). N87 cells were grown in complete RPMI 1640 supplemented with 10% FBS and 1% P/S. BT474 and A431 cells were grown in DMEM (Life Technologies, Carlsbad, CA) supplemented with 10% FBS and 1% P/S. All cells were maintained and propagated in a humidified 5% CO2 incubator at 37° C.
HER2 signaling was assessed in BT474 and N87 cell lines which endogenously overexpress the HER2 wildtype (WT) protein, in NCI-H1781 cells which endogenously expresses a HER2 mutant protein containing a VC insertion in the kinase domain (HER2VC or G776delinsVC), and in engineered cell lines transduced to express the Her2 mutant protein containing the YVMA insertion (Hek293-HER2YVMA and BEAS2B-HER2YVMA).
BT474, N87, and NCI-H1781 were plated in 96-well tissue-culture treated plates (Corning Costar, Sigma-Aldrich) in full media and incubated overnight. Hek293-HER2YVMA and BEAS2B-HER2YVMA cells were plated in 96-well poly-D-lysine treated plates (BD Bioscience, San Jose, CA). For treatment with test compounds, the media was replaced with corresponding low serum media (1% FBS) containing test compound at 1.1, 0.37, 0.12, 0.041, 0.014, 0.005, 0.0014, 0.0005 μM or DMSO control (0.1%). Cells were incubated with compound for 1.5 hr at 37° C. After compound treatment, the media was removed and cells were lysed for 30 min on ice in complete MSD lysis buffer (prepared using MSD base lysis buffer (Meso-Scale Discovery) supplemented with cOmplete, EDTA-free Protease inhibitor cocktail (Roche), Phosphatase Inhibitor Cocktails 2 and 3 (Sigma-Aldrich), and 1 mM PMSF (Sigma-Aldrich)). Lysates were stored at −70° C. until further analysis.
HER2 signaling was evaluated using phospho (Tyr1248)/total ErbB2 whole cell lysate MSD plates (Meso-Scale Discovery, Gaithersburg, MD). The phospho HER2 signal was normalized to total HER2 for each sample; results are reported as % DMSO control. The normalized data was fitted using a sigmoidal curve analysis program (Graph Pad Prism version 6) with variable Hill slope to determine EC50 values.
The HER2 signaling results are provided in Table 4, under columns titled “BT474-pHER2 EC50”, “N87-pHER2 EC50”, and “NCI-H1781-pHER2 EC50”. Hek293-HER2YVMA ins fall under the heading “HEKYVMA-pHER2 EC50”, Ba/F3 HER2YVMA fall under the heading “Ba/F3 YVMA-pHER2 EC50” and BEAS2B-HER2YVMA fall under the heading “BEAS2B YVMA-pHER2 EC50”.

T2 sequence (P04626 23-1255): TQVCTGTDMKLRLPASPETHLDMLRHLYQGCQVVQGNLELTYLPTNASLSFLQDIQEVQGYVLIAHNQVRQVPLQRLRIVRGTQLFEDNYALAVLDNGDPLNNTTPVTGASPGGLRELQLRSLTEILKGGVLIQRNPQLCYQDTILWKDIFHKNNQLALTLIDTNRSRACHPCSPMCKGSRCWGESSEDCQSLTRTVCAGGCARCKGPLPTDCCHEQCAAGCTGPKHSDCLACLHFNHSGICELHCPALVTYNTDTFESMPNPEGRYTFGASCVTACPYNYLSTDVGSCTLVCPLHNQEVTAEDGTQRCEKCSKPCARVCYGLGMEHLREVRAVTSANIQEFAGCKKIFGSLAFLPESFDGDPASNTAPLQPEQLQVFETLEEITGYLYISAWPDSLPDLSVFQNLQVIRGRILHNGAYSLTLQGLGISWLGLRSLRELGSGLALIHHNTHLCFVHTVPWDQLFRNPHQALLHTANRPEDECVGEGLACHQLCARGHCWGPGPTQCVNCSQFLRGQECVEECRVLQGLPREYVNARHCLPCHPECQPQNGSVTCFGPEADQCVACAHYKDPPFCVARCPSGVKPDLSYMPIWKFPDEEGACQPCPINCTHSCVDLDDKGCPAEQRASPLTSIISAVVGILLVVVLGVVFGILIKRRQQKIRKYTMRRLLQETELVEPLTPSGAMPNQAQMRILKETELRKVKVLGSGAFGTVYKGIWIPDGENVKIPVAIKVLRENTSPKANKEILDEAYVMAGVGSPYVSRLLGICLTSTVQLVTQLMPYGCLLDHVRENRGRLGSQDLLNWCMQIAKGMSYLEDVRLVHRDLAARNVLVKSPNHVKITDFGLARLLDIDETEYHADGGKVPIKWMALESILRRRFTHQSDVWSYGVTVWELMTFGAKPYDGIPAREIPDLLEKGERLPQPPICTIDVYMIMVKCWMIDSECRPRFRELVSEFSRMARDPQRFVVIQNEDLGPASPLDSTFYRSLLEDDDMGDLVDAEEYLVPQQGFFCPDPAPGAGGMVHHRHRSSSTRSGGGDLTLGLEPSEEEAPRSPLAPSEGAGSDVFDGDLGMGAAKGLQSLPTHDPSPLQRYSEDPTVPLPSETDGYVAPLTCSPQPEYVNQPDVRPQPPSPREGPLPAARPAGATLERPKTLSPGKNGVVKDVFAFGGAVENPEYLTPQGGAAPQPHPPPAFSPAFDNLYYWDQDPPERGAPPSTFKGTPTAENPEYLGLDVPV
T1 sequence (P00533 25-1210): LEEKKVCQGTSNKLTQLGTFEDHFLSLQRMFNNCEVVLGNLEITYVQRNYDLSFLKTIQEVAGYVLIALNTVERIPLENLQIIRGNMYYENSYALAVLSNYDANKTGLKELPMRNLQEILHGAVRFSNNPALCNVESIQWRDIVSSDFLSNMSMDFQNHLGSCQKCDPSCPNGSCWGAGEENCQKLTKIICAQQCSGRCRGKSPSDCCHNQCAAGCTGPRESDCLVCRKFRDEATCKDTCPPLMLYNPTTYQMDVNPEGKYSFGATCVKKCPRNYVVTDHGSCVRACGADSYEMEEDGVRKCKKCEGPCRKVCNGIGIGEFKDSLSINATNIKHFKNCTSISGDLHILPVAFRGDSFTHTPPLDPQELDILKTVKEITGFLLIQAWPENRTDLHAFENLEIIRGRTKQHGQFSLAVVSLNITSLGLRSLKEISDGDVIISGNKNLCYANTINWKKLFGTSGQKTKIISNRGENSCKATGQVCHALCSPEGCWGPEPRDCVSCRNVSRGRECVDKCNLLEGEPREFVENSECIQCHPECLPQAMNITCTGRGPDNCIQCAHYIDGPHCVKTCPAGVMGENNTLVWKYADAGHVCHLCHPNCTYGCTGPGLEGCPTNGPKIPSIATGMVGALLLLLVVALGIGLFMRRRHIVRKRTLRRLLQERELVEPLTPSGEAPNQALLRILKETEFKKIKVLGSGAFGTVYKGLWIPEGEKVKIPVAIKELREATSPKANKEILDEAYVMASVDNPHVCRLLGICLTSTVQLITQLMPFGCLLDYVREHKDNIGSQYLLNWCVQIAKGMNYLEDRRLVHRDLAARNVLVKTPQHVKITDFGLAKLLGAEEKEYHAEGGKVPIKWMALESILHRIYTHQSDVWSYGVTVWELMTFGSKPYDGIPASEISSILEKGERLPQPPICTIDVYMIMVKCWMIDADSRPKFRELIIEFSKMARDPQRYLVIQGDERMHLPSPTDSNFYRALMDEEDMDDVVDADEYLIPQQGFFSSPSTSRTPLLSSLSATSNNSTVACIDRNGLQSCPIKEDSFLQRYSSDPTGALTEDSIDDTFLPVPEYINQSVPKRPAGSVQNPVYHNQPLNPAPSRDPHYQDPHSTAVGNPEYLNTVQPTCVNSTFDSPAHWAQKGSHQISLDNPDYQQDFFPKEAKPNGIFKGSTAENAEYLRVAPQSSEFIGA

As to `Cc1ccc(Oc2ccc(Nc3ncnc4sc5c(c34)CC(C)N(C(=O)C=CCN(C)C)C5C)cc2C)cn1` (single isomer, unassigned) [Compound 162], at EGFR WT, the IC50 (usually the concentration that gives 50% inhibition) is > 10 µM. Moreover, in experiment [1], the EC50 (as a rule, the concentration at which the effect is half-maximal) was in the range of 0.35 to 1 µM.

For the compound `Cc1ccc(Oc2ccc(Nc3ncnc4sc5c(c34)CN(C(=O)C=CCN(C)C)C5C)cc2C)cn1` (single isomer, unassigned) [Compound 169], the IC50 against EGFR WT is > 10 µM. The EC50 in experiment [1] was < 0.1 µM. The matching figures for `Cc1ccc(Oc2ccc(Nc3ncnc4sc5c(c34)C(C)N(C(=O)C=CCN(C)C)C5)cc2C)cn1` (single isomer, unassigned) [Compound 147]: > 10 µM and < 0.1 µM.

For the compound `COc1ccc(Oc2ccc(Nc3ncnc4sc5c(c34)C(C)CN(C(=O)C=CCN(C)C)C5)cc2C)cn1` (single isomer, unassigned) [Compound 160], the half-maximal inhibitory concentration (IC50) at EGFR WT was > 10 µM. Further, the EC50 in experiment [1] is < 0.1 µM.

In the case of `C=CC(=O)N1[C@H](C)Cc2c(sc3ncnc(Nc4ccc(Oc5ccc(C)nc5)c(C)c4)c23)[C@H]1C` (racemic) [Compound 166, 1-(6,8-trans-dimethyl-4-((3-methyl-4-((6-methylpyridin-3-yl)oxy)phenyl)amino)-5,8-dihydropyrido[4′,3′:4,5]thieno[2,3-d]pyrimidin-7(6H)-yl)prop-2-en-1-one], the IC50 against EGFR WT was > 10 µM. Also, the EC50 in experiment [1] is < 0.1 µM. On to `Cc1ccc(Oc2ccc(Nc3ncnc4sc5c(c34)CCN(C(=O)/C=C/CN3CC4CCC(C4)C3)C5)cc2C)cn1` [Compound 16, (E)-4-(3-azabicyclo[3.2.1]octan-3-yl)-1-(4-((3-methyl-4-((6-methylpyridin-3-yl)oxy)phenyl)amino)-5,8-dihydropyrido[4′,3′:4,5]thieno[2,3-d]pyrimidin-7(6H)-yl)but-2-en-1-one benzenesulfonate salt], for which, in experiment [1], the EC50 is < 0.1 µM. On to `Cc1ccc(Oc2ccc(Nc3ncnc4sc5c(c34)CCN(C(=O)/C=C/CN(C)C)C5)cc2C)cn1` [Compound 8, (E)-4-(Dimethylamino)-1-(4-((3-methyl-4-((6-methylpyridin-3-yl)oxy)phenyl)amino)-5,6-dihydropyrido[4′,3′:4,5]thieno[2,3-d]pyrimidin-7(8H)-yl)but-2-en-1-one], for which the IC50 against EGFR WT lay in the range of 1 to 10 µM. For the same compound, the EC50 in experiment [1] was < 0.1 µM. With `COc1ccc(Oc2ccc(Nc3ncnc4sc5c(c34)C(C)CN(C(=O)C=CCN(C)C)C5)cc2C)cn1` (single isomer, unassigned) [Compound 159], the IC50 on EGFR WT was > 10 µM. The half-maximal effective concentration (EC50) in experiment [1] is < 0.1 µM.

For the compound `COc1ccc(Oc2ccc(Nc3ncnc4sc5c(c34)CN(C(=O)/C=C/CN(C)C)C5)cc2C)cn1` [Compound 128, (E)-4-(dimethylamino)-1-(4-((4-((6-methoxypyridin-3-yl)oxy)-3-methylphenyl)amino)-5,7-dihydro-6H-pyrrolo[3′,4′:4,5]thieno[2,3-d]pyrimidin-6-yl)but-2-en-1-one], on EGFR WT, the IC50 was > 10 µM. In experiment [1], the EC50 is < 0.1 µM. The matching figures for `Cc1ccc(Oc2ccc(Nc3ncnc4sc5c(c34)CN(C(=O)/C=C/CN(C)C)C5)cc2Cl)cn1` [Compound 129, (E)-1-(4-((3-Chloro-4-((6-methylpyridin-3-yl)oxy)phenyl)amino)-5H-pyrrolo[3′,4′:4,5]thieno[2,3-d]pyrimidin-6(7H)-yl)-4-(dimethylamino)but-2-en-1-one]: > 10 µM and < 0.1 µM.

In the case of `Cc1ccc(Oc2ccc(Nc3ncnc4sc5c(c34)CCN(C(=O)/C=C/CN3CCOCC3)C5)cc2C)cn1` [Compound 17, (E)-1-(4-((3-Methyl-4-((6-methylpyridin-3-yl)oxy)phenyl)amino)-5,6-dihydropyrido[4′,3′:4,5]thieno[2,3-d]pyrimidin-7(8H)-yl)-4-morpholinobut-2-en-1-one], the IC50 on EGFR WT was > 10 µM. For the same compound, the concentration giving a half-maximal response (EC50) in experiment [1] is < 0.1 µM. The matching figures for `Cc1cc(Nc2ncnc3sc4c(c23)CCN(C(=O)/C=C/CN2CCOCC2)C4)ccc1Oc1ccc2ncnn2c1` [Compound 12]: > 10 µM and < 0.1 µM.

Take `Cc1ccc(Oc2ccc(Nc3ncnc4sc5c(c34)CCN(C(=O)/C=C/CN3CC4CC(C3)O4)C5)cc2C)cn1` [Compound 15]: the IC50 on EGFR WT is > 10 µM. The EC50 in experiment [1] was < 0.1 µM.

For `Cc1ccc(Oc2ccc(Nc3ncnc4sc5c(c34)CC(C)N(C(=O)C=CCN(C)C)C5C)cc2C)cn1` (single isomer, unassigned) [Compound 161], on EGFR WT, the IC50 was > 10 µM. In addition, in experiment [1], the EC50 is < 0.1 µM. On to `Cc1ccc(Oc2ccc(Nc3ncnc4sc5c(c34)CCN(C(=O)/C=C/CN3CC4CCC3C4)C5)cc2C)cn1` (centres unmarked) [Compound 14], for which, at EGFR WT, the IC50 is > 10 µM. The EC50 in experiment [1] is < 0.1 µM. Taken in the same sequence, the figures for `Cc1ccc(Oc2ccc(Nc3ncnc4sc5c(c34)C(C)CN(C(=O)C=CCN3CCOCC3)C5)cc2C)cn1` (single isomer, unassigned) [Compound 177] were > 10 µM and < 0.1 µM. Take `CC[C@H](NC/C=C/C(=O)N1CCc2c(sc3ncnc(Nc4ccc(Oc5ccc(C)nc5)c(C)c4)c23)C1)C(F)(F)F` [Compound 122]: the IC50 on EGFR WT was > 10 µM. Same read-out and setting: the result for `Cc1ccc(Oc2ccc(Nc3ncnc4sc5c(c34)CCN(C(=O)/C=C/CN3C[C@H]4C[C@@H]3CC4C#N)C5)cc2C)cn1` (some centres unmarked) [Compound 120] reads > 10 µM; that for `Cc1ccc(Oc2ccc(Nc3ncnc4sc5c(c34)CCN(C(=O)/C=C/CN3CCC[C@H](CO)C3)C5)cc2C)cn1` [Compound 155], > 10 µM; that for `Cc1ccc(Oc2ccc(Nc3ncnc4sc5c(c34)C(C)N(C(=O)C=CCN(C)C)C5)cc2C)cn1` (single isomer, unassigned) [Compound 148], > 10 µM.
